Calls of active or inactive are those of the source.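 The calls were made as follows: active = compounds giving half or more protection of infected cells from virus-caused growth loss, again on retest; inactive = the rest.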
Test system: CEM cells HIV-1 protection, formazan growth assay
Experiment: NCI AIDS Antiviral Assay
Conditions: for IC50: measured here: growth of uninfected CEM cells
Outline: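 Protection of CEM cells against HIV-1 measured as cell growth via soluble formazan read-out, with five concentrations tested on both infected and uninfected cells; failure to protect may reflect toxicity.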

| SMILES | EC50 [µM] | IC50 [µM] | outcome |
| --- | --- | --- | --- |
| CCCCCCCCCCCCCCCC[NH][Ge]([NH]CCCCCCCCCCCCCCCC)([NH]CCCCCCCCCCCCCCCC)[NH]CCCCCCCCCCCCCCCC | > 7.41 | 4.79 |  |
| COc1cc2cc(C(=O)N3CC(CCl)c4c3cc(NC(=O)OCc3ccc([N+](=O)[O-])cc3)c3ccccc43)[nH]c2c(OC)c1OC (stereo unspecified) | > 200 | 2.88 |  |
| CCOC(=O)C(NC(=O)CC)(Nc1ccc(S(=O)(=O)Nc2ccc(OC)nn2)cc1)C(F)(F)F (stereo unspecified) | > 200 | > 200 |  |
| CCOC(=O)C(=O)N1C(C)=C(C(=O)OCC)CC(C(=O)OCC)=C1C | > 200 | > 200 |  |
| C1=Cc2nc1c(-c1ccccc1)c1ccc([n-]1)c(-c1ccccc1)c1nc(c(-c3ccccc3)c3ccc([n-]3)c2-c2ccccc2)C=C1.[Zn+2] | > 27.5 | > 27.5 |  |
| COc1ccc(-c2cc(-c3ccc4c(c3)CC(C)O4)nc(N)n2)cc1 (stereo unspecified) | > 30.2 | 20 |  |
| CC(C)(C)CP(CCP(C)(C)=S)CC(C)(C)C | > 44.7 | > 44.7 |  |
| OC[C@@H](O)[C@H]1NC[C@@H](O)[C@H]1O | > 200 | > 200 |  |
| CCOC(=O)C1(Br)C(c2ccccc2)NC(=O)NC1(C)Br (stereo unspecified) | > 85.1 | > 85.1 |  |
| O=C(O)CN(c1ccccc1)S(=O)(=O)c1ccccc1[N+](=O)[O-] |  |  | inactive |
| COc1cc(/C=C2\C(=O)N(C(=O)Cc3ccccc3)N=C2C)cc(OC)c1OC | > 25.1 | > 25.1 |  |
| CC1OC(n2cnc3c(=O)[nH]cnc32)C(O)C(O)C1O (stereo unspecified) | > 200 | > 200 |  |
| COc1nc(N)c(N=CC(OC(C)=O)C(OC(C)=O)C(COC(C)=O)OC(C)=O)c(=O)n1C (stereo unspecified) | > 200 |  |  |
| N#CSCc1nc2ccc(Cl)cc2c(-c2ccccc2)[n+]1[O-] | > 55 | 8.91 |  |
| COc1cc2c(cc1OC)-c1cc3ccc(OC)c(OC)c3c[n+]1CC2 | > 324 | 145 |  |
| N#CC1C(=O)Nc2cccnc21 (stereo unspecified) | > 1580 | 832 |  |
| O=C(CCCCC[n+]1ccccc1)Sc1ccccc1C(=O)NCc1ccc2c(c1)OCO2 | > 34.7 | 5.37 |  |
| Cc1ccc(NC(=O)CC2SC(=Nc3ccc(Cl)cc3)NC2=O)cc1C (stereo unspecified) | > 51.3 | > 51.3 |  |
| O=C1/C(=C\c2cccc(Oc3ccccc3)c2)S(=O)(=O)C(c2ccccc2)N1c1ccc(Cl)cc1 (stereo unspecified) | > 20 |  |  |
| CCCCC(C)C(OC(=O)CC(CC(=O)O)C(=O)O)C(CC(C)CC(O)CCCCC(O)CC(O)C(C)N)OC(=O)CC(CC(=O)O)C(=O)O (stereo unspecified) |  |  | inactive |
| O=C(c1ccccc1)c1ccsc1C(=O)c1ccccc1 | > 200 | 36.3 |  |

| SMILES | EC50 [µM] | IC50 [µM] | outcome |
| --- | --- | --- | --- |
| Cc1ccc2cc(NC(=O)CBr)c3ccc(C)nc3c2n1.Cc1ccc2cc(NC(=O)CBr)c3ccc(C)nc3c2n1.O=C1OC(C(O)C[O-])C(O)=C1O.[Cu+] | > 12.6 | 3.02 |  |
| Cc1nc(Nc2ccc(Cl)cc2)sc1C(=O)NNC(=S)NN | > 83.2 | 33.1 |  |
| O=[N+]([O-])c1c(Br)cc(Br)c2c1Nc1c(ccc(Cl)c1Cl)S2 | > 200 | 4.9 |  |
| CC(=O)NCCC1CN(C(=O)/C=C/I)c2ccccc21 (stereo unspecified) | > 200 | 1.1 |  |
| O=C(NCCNCCNC(=O)c1cc(-c2ccccc2)nc2ccccc12)c1cc(-c2ccccc2)nc2ccccc12 | > 20 | 3.47 |  |
| O=C(CCC(=O)Nc1cccc(Cl)c1)CC(=O)c1ccc(Cl)cc1 |  |  | inactive |
| Nc1ccc2oc3cccc(N)c3c(=O)c2c1 | > 22.9 | > 22.9 |  |
| O=P(O)(Cc1ccccc1)c1ccccc1-c1ccccc1 | > 200 | 49 |  |
| CNC1(C#N)CCN(Cc2ccccc2)CC1 | > 200 | > 200 |  |
| COC(=O)N1c2c(ccc3c2OCO3)C23C4CN5CCCC(CCC12C(=O)OC)(CC4=O)C53 (stereo unspecified) | > 7.94 | > 7.94 |  |
| COC(=O)C1(C)OC(C)=NC1(C(=O)OC)C(=O)OC (stereo unspecified) | > 200 | > 200 |  |
| Cc1c(C)c2cc3ccoc3cc2oc1=O | > 83.2 | > 83.2 |  |
| O=C1CC2OCC=C3CN4CCC5(C(=O)O)C(N1)C2C3CC45 (stereo unspecified) | > 813 | > 813 |  |
| c1ccc(C(c2ccccc2)[P+](c2ccccc2)(c2ccccc2)c2ccccc2)cc1 | > 20 | 0.372 |  |
| Cc1cc(NS(=O)(=O)c2ccc(NC(=O)COC(=O)c3cccc4c(=O)c5ccccc5[nH]c34)cc2)no1 |  |  | inactive |
| CCOC12SC(=Nc3ccc(C)cc3)NN1C(=S)N(C)N=C2C (stereo unspecified) | > 200 | > 200 |  |
| NS(=O)(=O)c1ccc(N=Cc2ccccc2O)cc1 | > 200 | > 200 |  |
| N#Cc1cc2ccccc2nc1SN |  |  | inactive |
| O=C1c2cc([N+](=O)[O-])ccc2NC1(c1c[nH]c2ccccc12)c1c[nH]c2ccc(Br)cc12 (stereo unspecified) | > 200 | 26.3 |  |
| C=C(C)CCC1CC=[N+]([O-])OC1C(C)(C)C (stereo unspecified) | > 200 | 28.8 |  |
| COc1ccc(/C=C2\C=C3OCOC3=CC2=O)cc1 | > 10.7 | > 10.7 |  |

| SMILES | EC50 [µM] | IC50 [µM] | outcome |
| --- | --- | --- | --- |
| O=C(O)c1cc2ccccc2oc1=O | > 1320 | > 1320 |  |
| CC(=O)OC12CC(C)C3(O)C4C=C(C)C(=O)[C@@]4(O)CC(CO)=C[C@H]3C1C2(C)C (stereo partly specified) |  |  | active |
| CC(O)CNC1=CC(=O)C(=O)c2ccccc21 (stereo unspecified) | > 200 | 28.8 |  |
| O=c1[nH]cnc2c1ncn2[C@H]1CO[C@@H](CO)[C@@H]1O | > 100 | > 100 |  |
| S=c1[nH]c(=S)c2nnn(-c3ccccc3)c2[nH]1 | > 138 | 126 |  |
| CC12CCCC1C1CC=C3CC(SC4CCC5(C)C(=CCC6C7CCCC7(C)CCC65)C4)CCC3(C)C1CC2 (stereo unspecified) | > 200 | > 200 |  |
| O=C1CNCCNCC(=O)Nc2ccccc2-c2ccccc2N1 |  |  | inactive |
| COC(=O)CCc1ccc2c(c1)CC1(C2)Cc2ccc3c(c2C1)CCC3 (stereo unspecified) | > 200 | > 200 |  |
| CN(C)C1=Nc2ccccc2C(=S)N2CSCC12 (stereo unspecified) | > 200 | 29.5 |  |
| Nc1ccc(-c2nc3ccc(Cc4ccc5nc(-c6ccc(N)cc6)oc5c4)cc3o2)cc1 | 107 | > 200 |  |
| CC(C)[C@@]12O[C@@H]1CC13OC1[C@@H](O)CC[C@@]32O (stereo partly specified) | > 200 | > 200 |  |
| CC(C)(C)C(=O)N1C(C(=O)O)Cc2ccccc2[C@@H]1Cc1ccccc1 (stereo partly specified) | > 74.1 | > 74.1 |  |
| CC1(CO)CCC(n2ccc(N)nc2=O)O1 (stereo unspecified) | 30.9 | > 200 |  |
| COC(=O)c1ccccc1/C=C1\Cc2ccc3ccccc3c2C1C (stereo unspecified) | > 200 | > 200 |  |
| COc1cc2c(cc1O)CC[n+]1cc3c(OC)c(OC)ccc3cc1-2 | > 182 | > 182 |  |
| O=[N+]([O-])c1ccc(-[n+]2ccc3ccccc3c2)c([N+](=O)[O-])c1 | > 759 | 4.79 |  |
| COC(=O)C1OC2(CCCC3CC32)O[C@H]1C(=O)OC (stereo partly specified) |  |  | inactive |
| C=CCNC(=O)CN1NN=C(c2ccccc2)N1 | > 107 | 93.3 |  |
| Cc1cc(OC(=O)c2c(C)cc(OC(=O)c3c(C)cc(O)cc3O)cc2O)cc(O)c1C(=O)O | > 77.6 | > 77.6 |  |
| O=C(c1ccco1)C1CC(c2c(O)ccc3ccccc23)=NN1 (stereo unspecified) | > 200 | 11.5 |  |
| O=CCc1c2c(nc3ccccc13)C(=O)c1ccccc1C2=O | > 20 | 7.94 |  |

| SMILES | EC50 [µM] | IC50 [µM] | outcome |
| --- | --- | --- | --- |
| COc1cccc(CCNC(=O)Cc2ccccc2CCO)c1 | > 200 | > 200 |  |
| CCC(C)C(NC(=O)C(CCCCN)NC(=O)CNC(=O)C(NC(=O)C(NC(=O)C(NC(=O)C(Cc1ccccc1)NC(=O)C(C)NC(=O)C(CCCNC(=N)N)NC(=O)CNC(=O)C1CCCN1C(=O)CNC(=O)C(CCCNC(=N)N)NC(=O)C(CCC(N)=O)NC(=O)C(NC(=O)C(CCCNC(=N)N)NC(=O)C(NC(=O)C(COC1OC(CO)C(O)C(O)C1NC(C)=O)NC(=O)C(CCCCN)NC(=O)C(CCCNC(=N)N)NC(=O)C(NC(=O)C(CC(N)=O)NC(=O)C(N)CC(N)=O)C(C)O)C(C)CC)C(C)CC)C(C)C)C(C)OC1OC(CO)C(O)C(O)C1NC(C)=O)C(C)CC)C(=O)NCOC#N (stereo unspecified) | > 27.5 | > 27.5 |  |
| COC(=O)C1([Se]c2ccccc2)CCN2CCC(OCc3ccccc3[N+](=O)[O-])C21 (stereo unspecified) | > 200 | > 200 |  |
| COc1ccc2c(c1)CCC1C=NOC21 (stereo unspecified) | > 245 | 107 |  |
| O=C1NC(O)c2cc(Cl)ccc2O1 (stereo unspecified) |  |  | inactive |
| O=C(Nc1ccc(-c2ccccn2)oc1=O)c1ccccc1 | > 200 | > 200 |  |
| CCOC(=O)N1CCC(=O)C[C@@H]1C/C=C/P1(=O)O[C@H](c2ccccc2)C(C)N1C(C)C (stereo partly specified) |  |  | inactive |
| COC1(OC)C2(Cl)C(Cl)=C(Cl)C1(Cl)C1COCC12 (stereo unspecified) |  |  | inactive |
| Cc1c(-c2nnc(-c3ccccc3)o2)c(=O)n(-c2ccccc2)n1C | > 200 | > 200 |  |
| CC(=O)N/C(=C\c1ccc(/C=C(\NC(C)=O)C2=NC3C(=O)c4ccccc4C(=O)C3N2)cc1)C1=NC2C(=O)c3ccccc3C(=O)C2N1 (stereo unspecified) |  |  | inactive |
| O=C(NCCCN1CCN(CCCNC(=O)Nc2cc(Cl)ccc2Cl)CC1)Nc1cc(Cl)ccc1Cl | > 0.955 | > 0.955 |  |
| Cn1c(=O)c2c(ncn2CC(=O)NC23CC4CC(CC(C4)C2)C3)n(C)c1=O |  |  | inactive |
| c1ccc(-c2c(-c3ccccc3)c2=NN(c2ccccc2)c2ccccc2)cc1 | > 200 | 11 |  |
| CCCCN(C=O)CCc1ccccc1 | > 1230 | > 1230 |  |
| CCCCn1c(-c2ccccc2)cs/c1=N\Nc1nc2c(c(=O)n(C)c(=O)n2C)n1C | > 200 | 10.7 |  |
| CC(=O)c1cc2ccccc2oc1=O | > 138 | > 138 |  |
| CC(=O)OC(C)(C)/C=C/C(=O)[C@](C)(O)[C@H]1[C@H](O)C[C@@]2(C)[C@@H]3CC=C4[C@@H](C[C@H](O)[C@H](O)C4(C)C)[C@]3(C)C(=O)C[C@]12C | > 0.2 | 0.0912 |  |
| COc1ccc(C(=O)Cc2nc3nnc(N)n3nc2CC(=O)c2ccc(OC)cc2)cc1 | > 575 | > 575 |  |
| N#Cc1c(=N)cc2c3ccccc3oc3c(C#N)c(N)[nH]c1c32 | > 200 | 195 |  |
| CC1(C)OC(=S)N(c2ccccc2)C12C=Cc1ccccc1O2 (stereo unspecified) | > 200 | 35.5 |  |
